Values belong to the molecule of their own block, whether it stands above or below them.
Experiments:
Matricaria [1] = assay: Pre-emergence test/greenhouse; type: in vivo; settings: after three weeks, vs untreated control
Protocol: (§1) To produce a suitable preparation of active compound, 1 part by weight of active compound is mixed with the stated amount of solvent, the stated amount of emulsifier is added and the concentrate is diluted with water to the desired concentration.
(§2) Seeds of the test plants are sown in normal soil. After about 24 hours, the soil is sprayed with the preparation of active compound such that the particular amount of active compound desired is applied per unit area. The concentration of the spray liquor is chosen so that the particular amount of active compound desired is applied in 1000 litres of water per hectare.
(§3) After three weeks, the degree of damage to the plants is rated in % damage in comparison to the development of the untreated control.
(§4) The figures denote: • 0%=no effect (like untreated control) • 100%=total destruction

Stellaria [2] = assay: Pre-emergence test/greenhouse; type: in vivo; settings: after three weeks, vs untreated control
Protocol: as §1, §2, §3, §4

Veronica [3] = assay: Pre-emergence test/greenhouse; type: in vivo; settings: 4 g of ai/ha, after three weeks, vs untreated control
Protocol: as §1, §2, §3, §4

Soya = assay: Pre-emergence test/greenhouse; type: in vivo; settings: 4 g of ai/ha, after three weeks, vs untreated control
Protocol: as §1, §2, §3, §4

Viola [4] = assay: Pre-emergence test/greenhouse; type: in vivo; settings: after three weeks, vs untreated control
Protocol: as §1, §2, §3, §4

weeds [5] = assay: Post-emergence test, activity against weeds; type: in vivo
Protocol: (§5) To produce a suitable preparation of active compound, one part by weight of active compound is mixed with the stated amount of solvent, the stated amount of emulsifier is added and the concentrate is diluted with water to the desired concentration.
(§6) Test plants which have a height of 5–15 cm are sprayed with the preparation of active compound such that the particular amounts of active compound desired are applied per unit area. The concentration of the spray liquor is chosen so that the particular amounts of active compound desired are applied in 1000 l of water/ha.
as §3, §4

weeds [6] = assay: Pre-emergence test, activity against weeds; type: in vivo
Protocol: as §1, §2, §3, §4

Stellaria [7] = assay: Post-emergence test/greenhouse; type: in vivo; settings: after three weeks, vs untreated control
Protocol: as §5, §6, §3, §4

Veronica [8] = assay: Post-emergence test/greenhouse; type: in vivo; settings: 15 g of ai/ha, after three weeks, vs untreated control
Protocol: as §5, §6, §3, §4

Lolium = assay: Post-emergence test/greenhouse; type: in vivo; settings: 15 g of ai/ha, after three weeks, vs untreated control
Protocol: as §5, §6, §3, §4

Echinochloa = assay: Post-emergence test/greenhouse; type: in vivo; settings: 15 g of ai/ha, after three weeks, vs untreated control
Protocol: as §5, §6, §3, §4

Alopecurus [9] = assay: Post-emergence test/greenhouse; type: in vivo; settings: after three weeks, vs untreated control
Protocol: as §5, §6, §3, §4

Viola [10] = assay: Post-emergence test/greenhouse; type: in vivo; settings: after three weeks, vs untreated control
Protocol: as §5, §6, §3, §4

Abutilon [11] = assay: Post-emergence test/greenhouse; type: in vivo; settings: after three weeks, vs untreated control
Protocol: as §5, §6, §3, §4

Sinapis = assay: Pre-emergence test/greenhouse; type: in vivo; settings: 250 g of ai/ha, after three weeks, vs untreated control
Protocol: as §1, §2, §3, §4

Maize = assay: Pre-emergence test/greenhouse; type: in vivo; settings: after three weeks, vs untreated control
Protocol: as §1, §2, §3, §4

Amaranthus [12] = assay: Pre-emergence test/greenhouse; type: in vivo; settings: after three weeks, vs untreated control
Protocol: as §1, §2, §3, §4

Cyperus = assay: Pre-emergence test/greenhouse; type: in vivo; settings: after three weeks, vs untreated control
Protocol: as §1, §2, §3, §4

Abutilon [13] = assay: Pre-emergence test/greenhouse; type: in vivo; settings: 250 g of ai/ha, after three weeks, vs untreated control
Protocol: as §1, §2, §3, §4

Matricaria [14] = assay: Post-emergence test/greenhouse; type: in vivo; settings: 125 g of ai/ha, after three weeks, vs untreated control
Protocol: as §5, §6, §3, §4

Amaranthus [15] = assay: Post-emergence test/greenhouse; type: in vivo; settings: after three weeks, vs untreated control
Protocol: as §5, §6, §3, §4

Xanthium = assay: Post-emergence test/greenhouse; type: in vivo; settings: Table B3, post-emergence, 125 g of ai/ha, after three weeks, vs untreated control
Protocol: as §5, §6, §3, §4

Wheat = assay: Post-emergence test/greenhouse; type: in vivo; settings: 125 g of ai/ha, after three weeks, vs untreated control
Protocol: as §5, §6, §3, §4

Alopecurus [16] = assay: Pre-emergence test/greenhouse; type: in vivo; settings: after three weeks, vs untreated control
Protocol: as §1, §2, §3, §4

Chenopodium [17] = assay: Pre-emergence test/greenhouse; type: in vivo; settings: 125 g of ai/ha, after three weeks, vs untreated control
Protocol: as §1, §2, §3, §4

Setaria = assay: Post-emergence test/greenhouse; type: in vivo; settings: Table B4, post-emergence, 125 g of ai/ha, after three weeks, vs untreated control
Protocol: as §5, §6, §3, §4

Ipomoea = assay: Post-emergence test/greenhouse; type: in vivo; settings: Table B4, post-emergence, 125 g of ai/ha, after three weeks, vs untreated control
Protocol: as §5, §6, §3, §4

Chenopodium [18] = assay: Post-emergence test/greenhouse; type: in vivo; settings: Table B4, post-emergence, 125 g of ai/ha, after three weeks, vs untreated control
Protocol: as §5, §6, §3, §4

Cotton = assay: Pre-emergence test/greenhouse; type: in vivo; settings: 15 g of ai/ha, after three weeks, vs untreated control
Protocol: as §1, §2, §3, §4

Barley = assay: Post-emergence test/greenhouse; type: in vivo; settings: 4 g of ai/ha, after three weeks, vs untreated control
Protocol: as §5, §6, §3, §4

[19] = Table A6, pre-emergence, 250 g of ai/ha
[20] = Table B3, post-emergence, 125 g of ai/ha
[21] = Table A4, pre-emergence, 250 g of ai/ha
[22] = Table A5, pre-emergence, 250 g of ai/ha

melting point: 195 °C
Structure (SMILES): COC(=O)c1csc(C)c1S(=O)(=O)NC(=O)Nc1nc(C)nc(OC)n1 [Example 1, N-(4-methoxy-6-methyl-1,3,5-triazin-2-yl)-N′-(4-methoxycarbonyl-2-methyl-thien-3-yl-sulphonyl)-urea]
degree of damage to the plants, Matricaria (Matricaria [1]; 4 g of ai/ha): 95%
degree of damage to the plants, Stellaria (Stellaria [2]; 4 g of ai/ha): 95%
degree of damage to the plants, Veronica (Veronica [3]): 95%
degree of damage to the plants, Soya (Soya): 10%
degree of damage to the plants, Viola (Viola [4]; 4 g of ai/ha): 100%
activity against weeds (weeds [5]): very strong activity
activity against weeds (weeds [6]): very strong activity
degree of damage to the plants, Stellaria (Stellaria [7]; 15 g of ai/ha): 100%
degree of damage to the plants, Veronica (Veronica [8]): 100%
degree of damage to the plants, Lolium (Lolium): 100%
degree of damage to the plants, Echinochloa (Echinochloa): 100%
degree of damage to the plants, Alopecurus (Alopecurus [9]; 15 g of ai/ha): 100%
degree of damage to the plants, Viola (Viola [10]; post-emergence, 15 g of ai/ha): 100%
degree of damage to the plants, Abutilon (Abutilon [11]; 15 g of ai/ha): 100%

melting point: 174 °C
Structure (SMILES): COC(=O)c1csc(C)c1NS(=O)(=O)NC(=O)Nc1nc(OC)cc(OC)n1 [Example 2, N-(4,6-dimethoxy-pyrimidin-2-yl)-N′-(4-methoxycarbonyl-2-methyl-thien-3-yl-amino-sulphonyl)-urea]
degree of damage to the plants, Sinapis (Sinapis; Table A6, pre-emergence): 95%
degree of damage to the plants, Maize (Maize; [19]): 20%
degree of damage to the plants, Amaranthus (Amaranthus [12]; [19]): 95%
degree of damage to the plants, Cyperus (Cyperus; [19]): 95%
degree of damage to the plants, Abutilon (Abutilon [13]; Table A6, pre-emergence): 90%
activity against weeds (weeds [5]): very strong activity
activity against weeds (weeds [6]): very strong activity
degree of damage to the plants, Matricaria (Matricaria [14]; Table B3, post-emergence): 100%
degree of damage to the plants, Amaranthus (Amaranthus [15]; [20]): 100%
degree of damage to the plants, Xanthium (Xanthium): 95%
degree of damage to the plants, Wheat (Wheat; Table B3, post-emergence): 0%
degree of damage to the plants, Viola (Viola [10]; [20]): 100%

Structure (SMILES): CCCc1scc(C(=O)OCC)c1NS(=O)(=O)NC(=O)Nc1nc(OC)cc(OC)n1 [Example 3]
degree of damage to the plants, Sinapis (Sinapis; Table A4, pre-emergence): 90%
degree of damage to the plants, Amaranthus (Amaranthus [12]; [21]): 90%
degree of damage to the plants, Alopecurus (Alopecurus [16]; [21]): 70%
degree of damage to the plants, Abutilon (Abutilon [13]; Table A4, pre-emergence): 80%
activity against weeds (weeds [6]): very strong activity

Structure (SMILES): CCOC(=O)c1csc(C(C)C)c1NS(=O)(=O)NC(=O)Nc1nc(OC)cc(OC)n1 [Example 4]
degree of damage to the plants, Sinapis (Sinapis; Table A5, pre-emergence): 90%
degree of damage to the plants, Amaranthus (Amaranthus [12]; [22]): 90%
degree of damage to the plants, Alopecurus (Alopecurus [16]; [22]): 100%
degree of damage to the plants, Cyperus (Cyperus; [22]): 90%
degree of damage to the plants, Abutilon (Abutilon [13]; Table A5, pre-emergence): 95%
activity against weeds (weeds [6]): very strong activity

Structure (SMILES): CCc1scc(C(=O)OC)c1NS(=O)(=O)NC(=O)Nc1nc(OC)cc(OC)n1 [Example 5]
degree of damage to the plants, Matricaria (Matricaria [1]; 125 g of ai/ha): 100%
degree of damage to the plants, Maize (Maize; pre-emergence, 125 g of ai/ha): 20%
degree of damage to the plants, Cyperus (Cyperus; pre-emergence, 125 g of ai/ha): 95%
degree of damage to the plants, Viola (Viola [4]; 125 g of ai/ha): 95%
degree of damage to the plants, Chenopodium (Chenopodium [17]): 95%
activity against weeds (weeds [5]): very strong activity
activity against weeds (weeds [6]): very strong activity
degree of damage to the plants, Matricaria (Matricaria [14]; Table B4, post-emergence): 100%
degree of damage to the plants, Setaria (Setaria): 90%
degree of damage to the plants, Ipomoea (Ipomoea): 100%
degree of damage to the plants, Wheat (Wheat; Table B4, post-emergence): 20%
degree of damage to the plants, Chenopodium (Chenopodium [18]): 100%

Structure (SMILES): COC(=O)c1csc(C)c1S(=O)(=O)NC(=O)Nc1nc(OC)cc(OC)n1 [Example 6]
degree of damage to the plants, Stellaria (Stellaria [2]; 15 g of ai/ha): 90%
degree of damage to the plants, Amaranthus (Amaranthus [12]; pre-emergence, 15 g of ai/ha): 90%
degree of damage to the plants, Alopecurus (Alopecurus [16]; pre-emergence, 15 g of ai/ha): 80%
degree of damage to the plants, Viola (Viola [4]; 15 g of ai/ha): 100%
degree of damage to the plants, Cotton (Cotton): 0%
activity against weeds (weeds [5]): very strong activity
activity against weeds (weeds [6]): very strong activity
degree of damage to the plants, Stellaria (Stellaria [7]; 4 g of ai/ha): 95%
degree of damage to the plants, Amaranthus (Amaranthus [15]; post-emergence, 4 g of ai/ha): 100%
degree of damage to the plants, Alopecurus (Alopecurus [9]; 4 g of ai/ha): 90%
degree of damage to the plants, Barley (Barley): 20%
degree of damage to the plants, Abutilon (Abutilon [11]; 4 g of ai/ha): 100%

From patent US7091158B2, “Substituted thienyl(amino)sulphonylureas” (Bayer Aktiengesellschaft, priority 1999, dated 2006)
